Test results reported in ChEMBL document CHEMBL5370569, “Camaldulensals A-C, the First Meroterpenoids Possessing Two Spatially Separated Formyl Phloroglucinols Conjugated to a Terpene Core from the Leaves of Eucalyptus camaldulensis Dehnh” (2023).
≈ marks a conversion by molar mass, not a printed value.

Legend:
Format in all cases: functional
[1] = test system: Staphylococcus aureus; assay: Antibacterial activity against Staphylococcus aureus assessed as bacterial growth inhibtion incubated for 18 hrs by resazurin dye based microdilution assay
[2] = test system: Staphylococcus aureus; assay: Antibacterial activity against Methicillin-sensitive Staphylococcus aureus ATCC 25923 assessed as bacterial growth inhibtion incubated for 18 hrs by resazurin dye based microdilution assay
[3] = test system: Staphylococcus aureus; assay: Antibacterial activity against Methicillin-resistant Staphylococcus aureus ATCC 43300 assessed as bacterial growth inhibtion incubated for 18 hrs by resazurin dye based microdilution assay
[4] = test system: Staphylococcus aureus; assay: Potency index, ratio of eucalrobusone-F MIC to test compound MIC for antibacterial activity against Staphylococcus aureus

Row | MIC [1] | Structure (SMILES) | MIC [2] | MIC [3] | Ratio [4]
1 | 3.5 µM (≈ 1.54 µg/mL) | C=C(C)[C@@H]1C=C2[C@@H](C)CC[C@@H](Cc3c(O)c(C=O)c(O)c(C(=O)CCC)c3O)[C@]2(C)CC1 | – | – | –
2 | – | CC(C)CC(=O)c1c(O)c(C=O)c2c(c1O)C[C@@H]1CC(=O)CC[C@]1(C)O2 | > 899 µM | > 899 µM | –
3 | 16.5 µM (≈ 8.03 µg/mL) | CC(=O)CC[C@@H]1[C@H]([C@@H]2C[C@@](C)(C(CC(C)C)c3c(O)c(C=O)c(O)c(C=O)c3O)CC2=O)C1(C)C (some centres not stated) | – | – | –
4 | 3.3 µM (≈ 1.56 µg/mL) | CC(C)C[C@@H](c1c(O)c(C=O)c(O)c(C=O)c1O)[C@@]1(C)CC[C@@H]2[C@@H]1[C@H]1[C@@H](CC[C@@]2(C)O)C1(C)C [MACROCARPAL A] | – | – | –
5 | – | CO[C@H]1/C=C/O[C@@]2(C)Oc3c(C)c(O)c4c(O)c(c(/C=N/N5CCN(C)CC5)c(O)c4c3C2=O)NC(=O)/C(C)=C\C=C\[C@H](C)[C@H](O)[C@@H](C)[C@@H](O)[C@@H](C)[C@H](OC(C)=O)[C@@H]1C [RIFAMPIN] | 0.16 µM (≈ 0.132 µg/mL) | 0.16 µM (≈ 0.132 µg/mL) | –
6 | 7.1 µM (≈ 3.13 µg/mL) | C=C1CC[C@@H]2[C@H]([C@H]3[C@H]1CC[C@]3(C)Cc1c(O)c(C=O)c(O)c(C(=O)CCC)c1O)C2(C)C | – | – | –
7 | 3.4 µM (≈ 1.61 µg/mL) | CC(C)CC(c1c(O)c(C=O)c(O)c(C=O)c1O)C1(C)C=C2CCC1C(C(C)(C)O)CCC2C (configuration not stated) | – | – | –
8 | 3.3 µM (≈ 1.56 µg/mL) | CC(C)CC(c1c(O)c(C=O)c(O)c(C=O)c1O)C1(C)CCC2C1=CC(C(C)(C)O)CCC2C (configuration not stated) | – | – | –
9 | 19.9 µM (≈ 9.41 µg/mL) | C=C(C)[C@@H]1CC[C@@]2(C)[C@H](Cc3c(O)c(C=O)c(O)c(C(=O)CC(C)C)c3O)CC[C@@](C)(O)[C@@H]2C1 | – | – | –
10 | 6.9 µM (≈ 3.14 µg/mL) | C=C1CCC2C(C3C1CCC3(C)C(CC(C)C)c1c(O)c(C=O)c(O)c(C=O)c1O)C2(C)C (configuration not stated) | – | – | –
11 | 16.8 µM (≈ 8.24 µg/mL) | CC(C)C[C@@H](c1c(O)c(C=O)c(O)c(C=O)c1O)C1CC[C@@](C)(O)[C@@H]2C[C@H](C(C)(C)O)CC[C@@]12C (some centres not stated) | – | – | –
12 | – | CC(C)CC(=O)c1c(O)c(C=O)c(O)c2c1O[C@]1(C)[C@H](C2)C[C@@]2(C(C)C)C[C@H]21 | > 82.9 µM | > 82.9 µM | –
13 | 1.7 µM (≈ 0.803 µg/mL) | CC(C)CC(c1c(O)c(C=O)c(O)c(C=O)c1O)C1(C)/C=C2/CCC2C(C(C)(C)O)CCC1C (configuration not stated) | – | – | –
14 | – | CC(C)C[C@H]1c2c(O)c(C=O)c(O)c(C=O)c2O[C@]2(C)C=CC(=O)C[C@@H]12 | > 89.4 µM | > 89.4 µM | –
15 | – | CC(C)CC(=O)c1c(O)c(C=O)c(O)c2c1O[C@H]1[C@H]3[C@@H](CC[C@]4(C)Oc5c(c(O)c(C=O)c(O)c5C(=O)CC(C)C)C[C@H]4CC[C@]1(C)C2)C3(C)C | > 45.4 µM | > 45.4 µM | –
16 | 7.4 µM (≈ 3.5 µg/mL) | CC(C)CC(=O)c1c(O)c(C=O)c(O)c(C[C@@]2(C)CC[C@@H]3[C@@H]2[C@H]2[C@@H](CC[C@@]3(C)O)C2(C)C)c1O [EUCALYPTIN A] | – | – | –
17 | – | Cc1c(O)c(C=O)c(O)c([C@H]2Oc3c(C=O)c(O)c(C(=O)CC(C)C)c(O)c3C[C@@H]2C(C)C)c1O | > 65.8 µM | > 65.8 µM | –
18 | 4.7 µM (≈ 2.14 µg/mL) | C=C(C)[C@@H]1C=C2[C@@H](C)CC[C@@H](Cc3c(O)c(C=O)c(O)c(C(=O)CC(C)C)c3O)[C@]2(C)CC1 | – | – | –
19 | 3.3 µM (≈ 1.56 µg/mL) | CC(C)CC(c1c(O)c(C=O)c(O)c(C=O)c1O)C1(C)CCC2C1C1C(CCC2(C)O)C1(C)C (configuration not stated) | – | – | –

Row | Structure (SMILES) | MIC [1] | MIC [2] | MIC [3] | Ratio [4]
20 | CC(C)CC(=O)c1c(O)c(C=O)c(O)c(C[C@H]2CC(C(C)C)=C[C@H]3Oc4c(C=O)c(O)c(C(=O)CC(C)C)c(O)c4C[C@@]23C)c1O | 6.3 µM (≈ 4.01 µg/mL) | 6.3 µM (≈ 4.01 µg/mL) | 6.3 µM (≈ 4.01 µg/mL) | ~2
21 | CC(C)CC(=O)c1c(O)c(C=O)c(O)c(C[C@H]2CC(C(C)C)=C[C@H]3Oc4c(c(O)c(C=O)c(O)c4C(=O)CC(C)C)C[C@@]23C)c1O | 12.6 µM (≈ 8.02 µg/mL) | 12.6 µM (≈ 8.02 µg/mL) | 12.6 µM (≈ 8.02 µg/mL) | –
